Data as given in patent publication US20250263434A1, “OLIGOPEPTIDE HAVING BLOOD PRESSURE REDUCING EFFECT, AND PREPARATION METHOD THEREFOR AND APPLICATION THEREOF” (South China Agricultural University, priority 2020, published 2025).

Tested on: ACE
Assay: Determination of ACE inhibitory activity (HHL substrate, hippuric acid measured by HPLC)
Format: biochemical
Conditions: for IC50: ACE inhibition, IC50 found from the inhibition rate vs concentration curve
Description: (2) Determination Method of ACE Inhibitory Activity
10 μL of ACE solution (0.25 U/mL, ACE enzyme was dissolved into pH 7 potassium phosphate buffer) was respectively added into a sample tube (B) and a blank tube (A), 10 μL of ACEI was added into the sample tube, 10 μL of buffer was added into the blank tube, samples were incubated for 5 min at 37° C., then 30 μL of HHL solution ([…], HHL was dissolved into pH 8.3 0.1 mol·L^−1 borate buffer, containing 0.3 mol·L^−1 NaCl) was added, the above materials reacted for 1 h at 37° C., and then 80 μL of 1.0 mol/L HCl was added to terminate the reaction, so as to obtain a reaction solution, seen in Table 2.
Mobile phase and chromatographic conditions: acetonitrile: ultrapure water=25:75 (including 0.1% (V/V) TFA), flow rate: 1 mL/min; detection wavelength: 228 nm; column temperature: 30° C.; injection volume: 20 μL.
Principle: HHL was rapidly decomposed under the catalysis of ACE to produce hippuric acid (Hip) and dipeptide (His-Leu, HL). Hippuric acid has the maximum absorption at 228 nm. When ACEI samples were added, the activity of the ACE enzyme was inhibited and the production amount of hippuric acid was reduced. Therefore, the inhibition rate of ACEI on ACE activity can be evaluated by measuring the production amount of hippuric acid by HPLC.
In the formula, R: an inhibition rate (%) of ACEI sample on ACE; • A: a peak area of hippuric acid in control group • B: a peak area of hippuric acid in ACEI addition group • A0: a peak area of hippuric acid in blank group
Where, IC50 is defined as a concentration of an inhibitor required when a half of ACE enzyme activity is inhibited under certain conditions. There was no a linear relationship between the inhibition rate and the concentration of the formulation, and therefore a curve of a relationship between the inhibition rate and the concentration of the formulation was firstly plotted, and then IC50 was found out from the curve. […]

IC50 [µg/mL] | IC50 (listed as oligopeptide) [µg/mL] | Substance | inhibition rate on ACE (concentration of the sample 1 mg/mL) [%]
56.67 ± 12.02 | – | LIIPEH [Artificially synthesized monomer H6, Leu-Ile-Ile-Pro-Glu-His, Synthesized LIIPEH by Shanghai jiepeptide Biotechnology Co., Ltd] | –
– | 280.00 ± 5.77 | LIIPEH [RP-HCLP separated monomer H6, Leu-Ile-Ile-Pro-Glu-His, Oligopeptide LIIPEH separated and purified from rice wine lees] | 91.72
